# Data from BindingDB's records for doi:10.1016/0006-3223(89)90217-5 (Stanford University, 1989).
# How the values were obtained:
# [1] = target: T1, 5-hydroxytryptamine receptor 1A (Homo sapiens, UniProt P08908)
# T1 sequence (P08908 whole entry): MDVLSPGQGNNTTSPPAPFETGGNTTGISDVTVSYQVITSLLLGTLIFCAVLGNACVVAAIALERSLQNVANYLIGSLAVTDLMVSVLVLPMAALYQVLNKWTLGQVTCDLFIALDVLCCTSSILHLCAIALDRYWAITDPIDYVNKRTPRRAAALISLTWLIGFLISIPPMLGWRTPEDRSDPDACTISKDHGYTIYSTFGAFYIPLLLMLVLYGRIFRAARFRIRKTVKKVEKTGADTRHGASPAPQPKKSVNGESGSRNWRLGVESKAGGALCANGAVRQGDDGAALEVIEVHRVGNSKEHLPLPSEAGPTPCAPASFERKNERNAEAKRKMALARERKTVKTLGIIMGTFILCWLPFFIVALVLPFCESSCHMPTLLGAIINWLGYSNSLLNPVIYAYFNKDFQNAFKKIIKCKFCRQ
# [2] = target: 5-hydroxytryptamine receptor 1D (Homo sapiens, UniProt P28221)
# [3] = target: Beta-2 adrenergic receptor (Homo sapiens, UniProt P07550)
# D(2) dopamine receptor = D(2) dopamine receptor (Homo sapiens, UniProt P14416)
# D(1A) dopamine receptor = D(1A) dopamine receptor (Homo sapiens, UniProt P21728)
# [4] = target: T2, Muscarinic acetylcholine receptor M2 (Homo sapiens, UniProt P08172)
# T2 sequence (P08172 whole entry): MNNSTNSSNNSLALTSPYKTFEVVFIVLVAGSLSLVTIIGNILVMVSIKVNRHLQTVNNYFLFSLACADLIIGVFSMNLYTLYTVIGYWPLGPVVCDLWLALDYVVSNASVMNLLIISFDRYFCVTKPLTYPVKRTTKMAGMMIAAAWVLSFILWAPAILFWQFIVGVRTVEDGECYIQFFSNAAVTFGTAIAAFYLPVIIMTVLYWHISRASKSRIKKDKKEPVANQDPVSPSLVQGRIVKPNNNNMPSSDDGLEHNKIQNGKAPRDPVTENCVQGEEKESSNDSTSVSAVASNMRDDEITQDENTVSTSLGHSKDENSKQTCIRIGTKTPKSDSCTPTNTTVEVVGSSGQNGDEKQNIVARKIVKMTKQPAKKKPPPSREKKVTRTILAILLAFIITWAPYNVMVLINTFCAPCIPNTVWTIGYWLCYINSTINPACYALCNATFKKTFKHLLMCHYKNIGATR
# [5] = target: T3, Solute carrier family 22 member 1 (Homo sapiens, UniProt O15245)
# T3 sequence (O15245 whole entry): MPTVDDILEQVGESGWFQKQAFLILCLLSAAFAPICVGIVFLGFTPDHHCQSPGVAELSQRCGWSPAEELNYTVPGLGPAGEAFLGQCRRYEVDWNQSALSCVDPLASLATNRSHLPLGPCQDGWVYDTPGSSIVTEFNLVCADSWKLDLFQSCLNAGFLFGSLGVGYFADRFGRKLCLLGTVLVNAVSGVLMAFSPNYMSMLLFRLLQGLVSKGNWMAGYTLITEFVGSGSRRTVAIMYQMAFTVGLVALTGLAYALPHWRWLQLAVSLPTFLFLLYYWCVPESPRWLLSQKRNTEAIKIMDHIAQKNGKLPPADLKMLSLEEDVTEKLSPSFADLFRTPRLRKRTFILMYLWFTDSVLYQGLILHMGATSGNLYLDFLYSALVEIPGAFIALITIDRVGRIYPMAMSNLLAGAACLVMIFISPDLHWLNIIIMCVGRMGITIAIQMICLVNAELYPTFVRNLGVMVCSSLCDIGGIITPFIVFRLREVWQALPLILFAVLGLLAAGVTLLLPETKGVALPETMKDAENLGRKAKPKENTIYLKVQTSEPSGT
# [6] = target: T4, Gamma-aminobutyric acid receptor subunit alpha-1 (Homo sapiens, UniProt P14867)
# T4 sequence (P14867 whole entry): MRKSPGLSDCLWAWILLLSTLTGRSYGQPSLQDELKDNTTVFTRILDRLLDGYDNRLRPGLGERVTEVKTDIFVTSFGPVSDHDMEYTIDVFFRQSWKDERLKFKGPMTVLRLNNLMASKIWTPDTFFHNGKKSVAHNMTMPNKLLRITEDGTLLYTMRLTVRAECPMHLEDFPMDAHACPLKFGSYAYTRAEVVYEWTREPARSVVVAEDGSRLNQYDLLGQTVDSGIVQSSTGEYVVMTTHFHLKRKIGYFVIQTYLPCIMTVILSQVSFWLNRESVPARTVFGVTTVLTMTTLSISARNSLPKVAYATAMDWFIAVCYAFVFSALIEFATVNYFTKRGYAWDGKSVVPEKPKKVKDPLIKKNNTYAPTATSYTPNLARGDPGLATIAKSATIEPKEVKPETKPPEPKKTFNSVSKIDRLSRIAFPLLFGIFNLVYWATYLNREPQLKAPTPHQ
# [7] = target: T5, Alpha-2A adrenergic receptor (Homo sapiens, UniProt P08913)
# T5 sequence (P08913 whole entry): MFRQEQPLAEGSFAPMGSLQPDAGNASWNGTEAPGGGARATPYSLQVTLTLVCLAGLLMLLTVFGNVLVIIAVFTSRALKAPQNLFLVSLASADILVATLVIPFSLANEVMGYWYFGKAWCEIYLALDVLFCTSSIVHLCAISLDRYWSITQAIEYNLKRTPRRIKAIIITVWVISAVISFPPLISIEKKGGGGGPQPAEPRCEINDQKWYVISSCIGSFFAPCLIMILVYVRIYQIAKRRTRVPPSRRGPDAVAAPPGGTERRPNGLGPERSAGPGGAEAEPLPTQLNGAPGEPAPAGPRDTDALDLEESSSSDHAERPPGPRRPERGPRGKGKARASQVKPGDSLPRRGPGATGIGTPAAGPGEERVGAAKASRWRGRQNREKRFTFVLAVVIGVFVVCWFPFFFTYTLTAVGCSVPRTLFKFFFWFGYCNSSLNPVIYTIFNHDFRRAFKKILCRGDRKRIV
# D(2) dopamine receptor, sequence (P14416 whole entry): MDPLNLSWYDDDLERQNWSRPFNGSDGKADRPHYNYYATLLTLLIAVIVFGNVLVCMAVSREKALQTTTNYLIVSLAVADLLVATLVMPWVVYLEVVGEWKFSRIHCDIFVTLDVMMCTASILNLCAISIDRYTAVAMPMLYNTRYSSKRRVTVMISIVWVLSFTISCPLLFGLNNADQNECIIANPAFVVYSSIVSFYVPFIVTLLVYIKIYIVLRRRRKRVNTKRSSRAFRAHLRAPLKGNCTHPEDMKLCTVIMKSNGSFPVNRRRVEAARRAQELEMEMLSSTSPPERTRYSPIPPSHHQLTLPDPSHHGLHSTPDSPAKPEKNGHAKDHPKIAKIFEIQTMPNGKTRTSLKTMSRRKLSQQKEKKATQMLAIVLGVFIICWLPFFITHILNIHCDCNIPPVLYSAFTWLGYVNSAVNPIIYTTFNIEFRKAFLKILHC
# 5-hydroxytryptamine receptor 1D, sequence (P28221 whole entry): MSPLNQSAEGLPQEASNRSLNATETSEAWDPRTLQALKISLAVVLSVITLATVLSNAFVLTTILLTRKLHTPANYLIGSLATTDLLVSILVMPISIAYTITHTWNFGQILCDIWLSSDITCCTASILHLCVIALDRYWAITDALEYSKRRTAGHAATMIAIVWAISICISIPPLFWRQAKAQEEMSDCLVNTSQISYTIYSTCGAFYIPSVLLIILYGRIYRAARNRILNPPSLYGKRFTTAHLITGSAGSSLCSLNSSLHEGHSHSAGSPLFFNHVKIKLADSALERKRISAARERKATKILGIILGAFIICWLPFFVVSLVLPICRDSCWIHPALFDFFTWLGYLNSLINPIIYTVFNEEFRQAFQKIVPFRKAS
# Beta-2 adrenergic receptor, sequence (P07550 whole entry): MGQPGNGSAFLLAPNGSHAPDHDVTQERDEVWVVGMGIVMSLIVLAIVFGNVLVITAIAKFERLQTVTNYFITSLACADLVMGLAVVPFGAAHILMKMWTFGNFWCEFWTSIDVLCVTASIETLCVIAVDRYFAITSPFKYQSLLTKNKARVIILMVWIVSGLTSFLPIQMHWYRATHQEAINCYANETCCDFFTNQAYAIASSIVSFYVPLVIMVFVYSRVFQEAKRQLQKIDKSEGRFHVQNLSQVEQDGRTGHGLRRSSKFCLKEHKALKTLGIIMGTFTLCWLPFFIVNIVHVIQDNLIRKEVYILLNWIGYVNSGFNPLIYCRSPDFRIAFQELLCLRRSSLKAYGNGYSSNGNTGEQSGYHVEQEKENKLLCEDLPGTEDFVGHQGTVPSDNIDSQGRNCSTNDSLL
# D(1A) dopamine receptor, sequence (P21728 whole entry): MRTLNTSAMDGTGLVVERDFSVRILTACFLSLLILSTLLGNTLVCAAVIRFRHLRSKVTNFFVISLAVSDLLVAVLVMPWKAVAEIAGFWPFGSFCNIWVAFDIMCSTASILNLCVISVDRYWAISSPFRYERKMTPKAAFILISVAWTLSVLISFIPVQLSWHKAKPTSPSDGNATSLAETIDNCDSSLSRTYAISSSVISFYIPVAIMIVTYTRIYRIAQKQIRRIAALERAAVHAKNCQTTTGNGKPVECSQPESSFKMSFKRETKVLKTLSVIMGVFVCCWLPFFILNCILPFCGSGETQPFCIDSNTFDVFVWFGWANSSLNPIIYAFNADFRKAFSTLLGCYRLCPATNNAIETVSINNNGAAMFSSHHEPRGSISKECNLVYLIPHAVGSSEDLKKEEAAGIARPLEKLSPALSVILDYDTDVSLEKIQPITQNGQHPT
smiles,measurement,setting,value
Clc1cccc(N2CCNCC2)c1 [mCPP],Ki,[1],0.4 µM
same,Ki,[2],1.3 µM
same,Ki,[3],2.5 µM
same,Ki,D(2) dopamine receptor,> 10 µM
same,Ki,D(1A) dopamine receptor,7 µM
same,Ki,[4],> 10 µM
same,Ki,[5],2.9 µM
same,Ki,[6],> 10 µM
same,Ki,[7],0.57 µM
